We go through 30 molecules from patent US5308869A, “Substituted amidines having high binding to the sigma receptor and the use thereof” (priority 1992, dated 1994).

One series concerns sigma binding site. Particulars: cited from earlier work.
Series [1] relates to sigma receptor. Kind of series: Sigma receptor binding assay, [^3 H]DTG, guinea pig brain membrane homogenates. Particulars: guinea pig brain membranes; for Binding to / selectivity at [^3 H]DTG-labelled sigma sites: drug specificity profile; for IC50: read-out: IC50 vs [^3 H]DTG (MEAN), […] [^3 H]DTG, pH 7.4, 90 minutes at room temperature, mean with SEM and n in own columns.

The subject of a further series is sigma sites. The following applies: rat brain membrane; cited from earlier work.
The next series concerns mu receptors. Particulars: cited from earlier work.
A further series relates to kappa receptors. Particulars: cited from earlier work.
The conditions of series [2]: in vivo; cited from earlier work.
The test system of the next series is rats. Particulars: rat, in vivo; cited from earlier work.
Series [3] has as its system [^3 H]spiperone-labeled D2 site in striatum. Particulars: chronic administration (20 days) to rats; cited from earlier work.
The subject of series [4] is sigma receptor. The following applies: cited from earlier work.
Another series concerns adrenergic sites. The following applies: cited from earlier work.
A further series relates to muscarinic sites. Particulars: cited from earlier work.
In series [5] the test system is dopamine-stimulated CAMP production. Particulars: in vitro; cited from earlier work.
The test system of series [6] is D1 subclass of dopamine receptors. The following applies: cited from earlier work.
Series [7] relates to D2 class of striatal dopamine receptors. Particulars: rat striatum; cited from earlier work.
A further series deals with histaminergic sites. The following applies: cited from earlier work.
In the next series the test system is cholinergic sites. The following applies: cited from earlier work.
The subject of the next series is rhesus monkeys. The following applies: introduction of foreign objects into cages; cited from earlier work.
For the next series, the system named is dopamine synthesis. The following applies: cited from earlier work.
For series [8] the following is noted: humans; cited from earlier work.
Series [9] concerns dopamine-stimulated production of CAMP. Particulars: homogenates of rat striatum and olfactory tubercle; cited from earlier work.
In series [10] the test system is sigma receptor. Particulars: cited from earlier work. This is another data set of the same source.
In series [11] the test system is apomorphine-induced mesolimbic behaviors. The following applies: without altering intensity of stereotypic behaviors; cited from earlier work.

On to `C=CCN1CCC2(C)c3cc(O)ccc3CC1C2C` (single isomer, unassigned; (+)) [(+)SKF-10,047, N-allyl-normetazocine], for which, in the series on sigma binding site, the “Drug selectivity profile of sigma binding site” value (shortened to “Drug selectivity profile”) is “selectively label a sigma receptor”. Also, the “Binding to / selectivity at [^3 H]DTG-labelled sigma sites” value (“Binding to / selectivity” for short) in the series on sigma receptor [1] is on record as “stereoselectivity for dextrorotatory isomers”. As to `CCCN1CCCC(c2cccc(O)c2)C1` (single isomer, unassigned; (+)) [(+)[^3 H]3-PPP, (+)[^3 H]3-(3-hydroxyphenyl)-N-(1-propyl)-piperidine], the “Selectivity for sigma sites” value in the series on sigma sites is “selective for sigma sites”. The “Binding to / selectivity” value in the series with sigma receptor [1] is “virtually identical receptor binding characteristics and drug selectivity profiles”. In the case of `CCC12CCN(CC3CC3)C(C(=O)c3ccc(O)cc31)C2C` (single isomer, unassigned; (+)) [(+)[^3 H]-ethylketazocine], the “Sigma site selectivity of radioligand” value with sigma binding site is on record as “not selective for the sigma site”. Turning to `C=CCN1CCC2(C)c3cc(O)ccc3CC1C2C` (single isomer, unassigned; (+)) [(+)[^3 H]SKF-10,047], the “Sigma site selectivity of radioligand” value with sigma binding site was “not selective for the sigma site”. Turning to `CC(C)=CCN1CCC2(C)c3cc(O)ccc3CC1C2C` (single isomer, unassigned; (+)) [(+)pentazocine], the “Binding to / selectivity” value with sigma receptor [1] is given as “stereoselectivity for dextrorotatory isomers”. Regarding `C=CCN1CCC2(C)c3cc(O)ccc3CC1C2C` (single isomer, unassigned; (-)) [(-)-SKF-10,047, N-allyl-normetazocine], in the series with sigma binding site, the “Drug selectivity profile” value is “not the sigma receptors”. The “Binding to mu receptors” value in the series with mu receptors was “labeled the mu and kappa receptors”. Moreover, the “Binding to kappa receptors” value in the series on kappa receptors was “labeled the mu and kappa receptors”. On to `C[C@@H]1CN(CCCn2c3ccccc3c3ccccc32)C[C@H](C)N1` [9-[3-(3,5-cis-dimethylpiperazino)-propyl]carbazole], for which the Anxiolytic activity result in [2] is given as “anxiolytic activity”. On to `OC(CCCN1CCN(c2ncc(F)cn2)CC1)c1ccc(F)cc1` (centres unmarked) [BMY 14802], for which, in the series on rats, the Catalepsy in rats result is on record as “did not cause catalepsy in rats”. Moreover, the “Maximal density of [^3 H]spiperone-labeled D2 site in striatum” value in series [3] is “did not increase the maximal density”. Also, the “Sigma receptor binding affinity” value in the series with sigma receptor [4] is reported as “relatively high affinity”. Besides, the “Potency at inhibiting sigma binding, dextrorotatory vs levorotatory enantiomer” value with sigma receptor [4] (dextrorotatory more potent than levorotatory enantiomer) is given as 10 times. Besides, the “Binding to adrenergic sites” value in the series on adrenergic sites is “does not bind”. Further, the “Binding to muscarinic sites” value in the series with muscarinic sites was “does not bind”. Also, the “Inhibition of dopamine-stimulated CAMP production” value in [5] is given as “does not inhibit dopamine-stimulated CAMP production”. Moreover, the “Interaction with D1 subclass of dopamine receptors” value in series [6] is listed as “does not appear to interact”. Besides, in [6] (in vitro), the “Inhibition of [^3 H]SCH 23390 binding” value was “does not inhibit”. The “Inhibition of [^3 H]spiperone binding to D2 receptors” value in series [7] was “does not inhibit the binding”. The “Binding to histaminergic sites” value with histaminergic sites is given as “does not bind”. In addition, the “Binding to cholinergic sites” value in the series with cholinergic sites is reported as “does not bind”. For `O=C1CC2(CCCC2)CC(=O)N1CCCCN1CCN(c2ncccn2)CC1` [Buspirone], the “Efficacy in taming of aggressive response” value in the series with rhesus monkeys was “efficacy in a predictive animal model”. The term IC50 denotes the concentration needed to halve the response being measured. Turning to `CC(=Nc1ccc(Br)cc1C)Nc1ccc(Br)cc1C` [N,N'-Bis(4-bromo-2-tolyl)acetamidine], the IC50 on sigma receptor [1] was determined as 25.8 nM. Still for that read-out and setting: under `CC(=Nc1cccc2ccccc12)Nc1cccc2ccccc12` [N,N'-bis(1-naphthyl)acetamidine] stands 169 nM. Still for that read-out and setting: under `CC(=Nc1ccccc1C(C)C)Nc1ccccc1C(C)C` [N,N'-bis(2-isopropylphenyl)acetamidine, N,N'-Bis(2-isopropylphenyl)acetamidine] stands 77.4 nM.

For `CCc1cccc(N=C(C)Nc2cccc(CC)c2)c1` [N,N'-bis(3-ethylphenyl)acetamidine, N,N'-Bis(3-ethylphenyl)acetamidine], the IC50 on sigma receptor [1] came to 13 nM. Still for that read-out and setting: under `CC(=Nc1ccccc1C)Nc1ccccc1C` [N,N'-bis(-o-tolyl)acetamidine, N,N'-Bis(o-methylphenyl)acetamidine] stands 15 nM. With `CC(=NC12CC3CC(CC(C3)C1)C2)NC12CC3CC(CC(C3)C1)C2` [N,N'-bis(adamantan-1-yl)acetamidine, N,N'-Bis(adamantan-1-yl)acetamidine], the IC50 on sigma receptor [1] amounted to 15.7 nM. Still for that read-out and setting: then `CCc1ccccc1N=C(C)Nc1ccccc1CC` [N,N'-bis-(o-ethylphenyl)acetamidine, N,N'-Bis(2-ethylphenyl)acetamidine], with 36.9 nM; and `CC(=Nc1ccccc1C(C)C)Nc1cccc2ccccc12` [N-(1-naphthyl)-N'-(2-isopropylphenyl)-acetamidine], with 118 nM. As to `CCc1cccc(N=C(C)Nc2cccc3ccccc23)c1` [N-(1-naphthyl)-N'-(3-ethylphenyl)-acetamidine], at sigma receptor [1], the half-maximal inhibitory concentration (IC50) was determined as 123 nM. In the case of `CCc1cccc(N=C(C)Nc2cccc3ccccc23)c1` [N-(1-naphthyl)-N'-(m-ethylphenyl)-acetamidine], the half-inhibitory concentration (IC50) at sigma receptor [1] stood at 2410 nM. Same read-out and setting: under `CC(=NC1CCCCC1)NC12CC3CC(CC(C3)C1)C2` [N-(Adamantan-1-yl)-N'-(cyclohexyl)acetamidine] stands 71.9 nM. On the same count and under the same terms, then `CC(=Nc1ccccc1C)NC12CC3CC(CC(C3)C1)C2` [N-(Adamantan-1-yl)-N'-(o-methylphenyl)acetamidine], with 7.27 nM; and `CC(=NC1CCCCC1)Nc1ccccc1C` [N-(o-Methylphenyl)-N'-(cyclohexyl)acetamidine], with 9.01 nM. Consider `CN=C(C)Nc1ccccc1C` [N-(o-tolyl)-N'-methylacetamidine], for which the IC50 on sigma receptor [1] turned out to be 354 nM.

For `CC(=Nc1ccccc1C)NC1CC2CCC1C2` (centres unmarked) [N-Exonorbornyl-N'-(2-methylphenyl)acetamidine], the IC50 at sigma receptor [1] is 9.32 nM. In the case of `[3H]c1ccc(NC(=N)Nc2ccc([3H])cc2C)c(C)c1` [[^3 H]DTG, N,N'-di-(4-[^3 H]-2-methylphenyl)-guanidine], in the series on sigma receptor [1], the “Binding to / selectivity” value is “binds specifically and with high affinity to a single class of binding sites”. As for `CN1CCc2cccc3c2[C@H]1Cc1ccc(O)c(O)c1-3` [apomorphine], the “Drug selectivity profile” value in the series with sigma binding site is reported as “insensitivity”. Further, the “Binding to / selectivity” value with sigma receptor [1] is given as “insensitivity”. On to `NCCc1ccc(O)c(O)c1` [dopamine], for which the “Drug selectivity profile” value in the series with sigma binding site is “insensitivity”. In the series on sigma receptor [1], the “Binding to / selectivity” value is recorded as “insensitivity”. For the molecule `O=C(CCCN1CCC(O)(c2ccc(Cl)cc2)CC1)c1ccc(F)cc1` [haloperidol], in the series with sigma binding site, the “Drug selectivity profile” value is recorded as “high affinity”. The “Binding to / selectivity” value in the series with sigma receptor [1] is “high affinity”. On to `C=CCN1CC[C@]23c4c5ccc(O)c4O[C@H]2C(=O)CC[C@@]3(O)[C@H]1C5` [naloxone], for which the “Drug selectivity profile” value with sigma binding site was “insensitivity”. Also, the “Binding to / selectivity” value in the series with sigma receptor [1] is recorded as “insensitivity”.

With `C[C@@H]1CN(CCCn2c3ccccc3c3ccccc32)C[C@H](C)N1.Cl.Cl` [rimcazole, cis-9-[3-(3,5-dimethyl-1-piperazinyl)-propyl]carbazole dihydrochloride], the “Acceleration of rate of dopamine synthesis” value with dopamine synthesis is on record as “does not accelerate the rate of dopamine synthesis”. Also, in series [8], the Extrapyramidal effects result is recorded as “without extrapyramidal effects”. In addition, in [9], the “Effect on dopamine-stimulated production of CAMP” value is listed as “does not affect dopamine-stimulated production of CAMP”. Further, the “Inhibition of specific binding of dextrorotatory tritiated SKF-10,047” value in the series on sigma receptor [10] was “competitively inhibit the specific binding”. The “Antagonism of apomorphine-induced mesolimbic behaviors” value in series [11] is reported as “antagonize apomorphine-induced mesolimbic behaviors selectively without altering the intensity of stereotypic behaviors”.
